From US6689790B2, “Substituted triazolopyridine compounds” (Hoffmann-La Roche Inc., priority 2001, dated 2004)
pKi: −log10 of the molar value. Where two headings read alike, the source gives them in different places.

Tests used:
hA1 = target: T1, hA1 (Homo sapiens, UniProt P30542); assay: hA1 receptor affinity (Ki); assay type: binding; settings: list of examples 10-108
T1 sequence (P30542 1-326): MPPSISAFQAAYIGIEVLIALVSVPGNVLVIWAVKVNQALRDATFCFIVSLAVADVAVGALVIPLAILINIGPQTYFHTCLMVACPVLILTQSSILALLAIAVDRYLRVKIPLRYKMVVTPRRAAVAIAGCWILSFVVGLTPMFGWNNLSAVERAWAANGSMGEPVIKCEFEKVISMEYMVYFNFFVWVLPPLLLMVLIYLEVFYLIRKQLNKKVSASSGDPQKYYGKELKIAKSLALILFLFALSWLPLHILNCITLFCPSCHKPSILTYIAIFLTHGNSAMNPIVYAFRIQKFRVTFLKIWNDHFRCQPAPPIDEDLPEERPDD

[1] = target: T2, human adenosine A2A receptor (Homo sapiens, UniProt P29274); assay: [3H]-SCH-58261 binding assay, human adenosine A2A receptor (CHO cell membranes, SPA); settings: for pKi: [3H]-SCH-58261 displacement, read-out: hA2a Ki; for Select. A1/A2a: ratio hA1 Ki / hA2a Ki
T2 construct: expressed in transfected cells; host or cells: CHO cells, semliki forest virus expression system; washed membranes
T2 sequence (P29274 whole entry): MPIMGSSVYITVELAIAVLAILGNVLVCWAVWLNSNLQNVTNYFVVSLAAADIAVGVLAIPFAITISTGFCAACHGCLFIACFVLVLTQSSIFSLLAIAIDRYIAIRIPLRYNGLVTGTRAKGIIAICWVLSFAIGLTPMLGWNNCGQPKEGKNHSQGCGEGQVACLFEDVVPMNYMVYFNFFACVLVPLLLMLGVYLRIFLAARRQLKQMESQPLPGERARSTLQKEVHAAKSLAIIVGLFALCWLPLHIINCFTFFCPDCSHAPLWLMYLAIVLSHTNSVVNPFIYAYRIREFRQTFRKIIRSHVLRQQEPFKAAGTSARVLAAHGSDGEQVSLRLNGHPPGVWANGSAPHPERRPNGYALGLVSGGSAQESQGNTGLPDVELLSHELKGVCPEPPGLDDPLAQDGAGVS
Experimental: Human Adenosine A2A Receptor
The human adenosine A2A receptor was recombinantly expressed in chinese hamster ovary (CHO) cells using the semliki forest virus expression system. Cells were harvested, washed twice by centrifugation, homogenized and again washed by centrifugation. The final washed membrane pellet was suspended in a Tris (50 mM) buffer containing 120 mM NaCl, 5 mM KCl, 2 mM CaCl2 and 10 mM MgCl2 (pH 7.4) (buffer A). […] Compounds were tested at 10 concentrations from 10 μM-0.3 nM. All assays were conducted in duplicate and repeated at least two times. Assay plates were incubated for 1 hour at room temperature before centrifugation and then bound ligand determined using a Packard Topcount scintillation counter. IC50 values were calculated using a non-linear curve fitting program and Ki values calculated using the Cheng-Prussoff equation.

[2] = Ki by Cheng-Prussoff, table of preferred compounds

SMILES | pKi (hA1) | pKi ([1]; list of examples 10-108) | Select. A1/A2a [1] | pKi [1, 2]
Nc1cc(C(=O)N2CCSCC2)cn2nc(-c3ccc(Br)o3)nc12 [Example 23, [8-Amino-2-(5-bromo-furan-2-yl)-[1,2,4]triazolo[1,5-a]pyridin-6-yl]-thiomorpholin-4-yl-methanone] | 6.03 |  |  | 
Cc1ccc(-c2nc3c(N)cc(C(=O)N4CCCC4)cn3n2)o1 [Example 83, [8-Amino-2-(5-methyl-furan-2-yl)-[1,2,4]triazolo[1,5-a]pyridin-6-yl]-pyrrolidin-1-yl-methanone] | 5.79 |  |  | 
Nc1cc(C(=O)N(Cc2ccccc2)Cc2ccccc2)cn2nc(-c3ccco3)nc12 [Example 48, 8-Amino-2-furan-2-yl-[1,2,4]triazolo[1,5-a]pyridine-6-carboxylic acid dibenzylamide] | 6.61 | 7.49 | 7.5 | 
CC1CCCN(C(=O)c2cc(N)c3nc(-c4ccco4)nn3c2)C1 (stereo not drawn) [Example 46, (8-Amino-2-furan-2-yl-[1,2,4]triazolo[1,5-a]pyridin-6-yl)-(3-methyl-piperidin-1-yl)-methanone] | 5.57 | 6.88 | 20.4 | 
CCN(CC)C(=O)c1cc(N)c2nc(-c3ccc(Br)o3)nn2c1 [Example 10, 8-Amino-2-(5-bromo-furan-2-yl)-[1,2,4]triazolo[1,5-a]pyridine-6-carboxylic acid diethylamide] | 5.65 |  |  | 
CN(CCC#N)C(=O)c1cc(N)c2nc(-c3ccc(Br)o3)nn2c1 [Example 24, 8-Amino-2-(5-bromo-furan-2-yl)-[1,2,4]triazolo[1,5-a]pyridine-6-carboxylic acid (2-cyano-ethyl)-methyl-amide] | 6.08 | 6.96 | 7.5 | 
CC1CCCN1C(=O)c1cc(N)c2nc(-c3ccc(Br)o3)nn2c1 (stereo not drawn) [Example 12, [8-Amino-2-(5-bromo-furan-2-yl)-[1,2,4]triazolo[1,5-a]pyridin-6-yl]-(2-methyl-pyrrolidin-1-yl)-methanone] | 5.95 |  |  | 
CCN(CCc1ccccn1)C(=O)c1cc(N)c2nc(-c3ccc(Br)o3)nn2c1 [Example 22, 8-Amino-2-(5-bromo-furan-2-yl)-[1,2,4]triazolo[1,5-a]pyridine-6-carboxylic acid ethyl-(2-pyridin-2-yl-ethyl)-amide] | 5.85 |  |  | 
Nc1cc(C(=O)N(Cc2ccccc2)Cc2ccccc2)cn2nc(-c3cccs3)nc12 [Example 64, 8-Amino-2-thiophen-2-yl-[1,2,4]triazolo[1,5-a]pyridine-6-carboxylic acid dibenzylamide] | 6.51 |  | 3.7 | 7.08
Cc1ccc(-c2nc3c(N)cc(C(=O)N4CCCC(C)C4)cn3n2)o1 (stereo not drawn) [Example 88, [8-Amino-2-(5-methyl-furan-2-yl)-[1,2,4]triazolo[1,5-a]pyridin-6-yl]-(3-methyl-piperidin-1-yl)-methanone] | 5.87 |  | 24 | 7.25
CC1CCCCN1C(=O)c1cc(N)c2nc(-c3ccco3)nn2c1 (stereo not drawn) [Example 39, (8-Amino-2-furan-2-yl-[1,2,4]triazolo[1,5-a]pyridin-6-yl)-(2-methyl-piperidin-1-yl)-methanone] | 5.66 | 6.87 | 16.1 | 
NC(=O)[C@H]1CCCN1C(=O)c1cc(N)c2nc(-c3ccco3)nn2c1 [Example 43, 1-(8-Amino-2-furan-2-yl-[1,2,4]triazolo[1,5-a]pyridine-6-carbonyl)-pyrrolidine-2-R-carboxylic acid amide] | 5.63 | 6.86 | 16.9 | 
COCC1CCCN1C(=O)c1cc(N)c2nc(-c3ccco3)nn2c1 (stereo in doubt) [Example 41, (8-Amino-2-furan-2-yl-[1,2,4]triazolo[1,5-a]pyridin-6-yl)-(2-R-methoxymethyl-pyrrolidin-1-yl)-methanone] | 5.36 |  | 56.2 | 7.11
CN(C)C(=O)CN(C)C(=O)c1cc(N)c2nc(-c3ccc(Br)o3)nn2c1 [Example 19, 8-Amino-2-(5-bromo-furan-2-yl)-[1,2,4]triazolo[1,5-a]pyridine-6-carboxylic acid dimethylcarbamoyl-methyl-methyl-amide] | 5.52 |  |  | 
CC1CCCN1C(=O)c1cc(N)c2nc(-c3ccco3)nn2c1 (stereo not drawn) [Example 37, (8-Amino-2-furan-2-yl-[1,2,4]triazolo[1,5-a]pyridin-6-yl)-(2-methyl-pyrrolidin-1-yl)-methanone] | 5.53 |  | 84.2 | 7.46
Nc1cc(C(=O)N2CCCC2)cn2nc(-c3ccco3)nc12 [Example 34, (8-Amino-2-furan-2-yl-[1,2,4]triazolo[1,5-a]pyridin-6-yl)-pyrrolidin-1-yl-methanone] | 5.38 |  |  | 

SMILES | pKi (hA1) | pKi ([1]; list of examples 10-108) | Select. A1/A2a [1] | pKi [1, 2]
CN(CCc1ccccc1)C(=O)c1cc(N)c2nc(-c3ccc(Br)o3)nn2c1 [Example 25, 8-Amino-2-(5-bromo-furan-2-yl)-[1,2,4]triazolo[1,5-a]pyridine-6-carboxylic acid methyl-phenethyl-amide] | 6.23 |  |  | 
Nc1cc(C(=O)N2CCCC2)cn2nc(-c3ccccn3)nc12 [Example 26, (8-Amino-2-pyridin-2-yl-[1,2,4]triazolo[1,5-a]pyridin-6-yl)-pyrrolidin-1-yl-methanone] | 5.45 |  |  | 
CC1CCCCN1C(=O)c1cc(N)c2nc(-c3ccc(Br)o3)nn2c1 (stereo not drawn) [Example 15, [8-Amino-2-(5-bromo-furan-2-yl)-[1,2,4]triazolo[1,5-a]pyridin-6-yl]-(2-methyl-piperidin-1-yl)-methanone] | 5.71 |  |  | 
COC[C@@H]1CCCN1C(=O)c1cc(N)c2nc(-c3ccc(Br)o3)nn2c1 [Example 16, [8-Amino-2-(5-bromo-furan-2-yl)-[1,2,4]triazolo[1,5-a]pyridin-6-yl]-(2-methoxymethyl-pyrrolidin-1-yl)-methanone] | 5.98 |  |  | 
CCN(CC)C(=O)C1CCCN(C(=O)c2cc(N)c3nc(-c4ccc(Br)o4)nn3c2)C1 (stereo not drawn) [Example 13, 1-[8-Amino-2-(5-bromo-furan-2-yl)-[1,2,4]triazolo[1,5-a]pyridine-6-carbonyl]-piperidine-3-carboxylic acid diethylamide] | 5.57 |  |  | 
COC[C@H]1CCCN1C(=O)c1cc(N)c2nc(-c3ccco3)nn2c1 [Example 42, (8-Amino-2-furan-2-yl-[1,2,4]triazolo[1,5-a]pyridin-6-yl)-(2-S-methoxymethyl-pyrrolidin-1-yl)-methanone] | 5.25 |  | 81.1 | 7.16
COCC1CCCN1C(=O)c1cc(N)c2nc(-c3ccc(Br)o3)nn2c1 (stereo in doubt) [Example 17, [8-Amino-2-(5-bromo-furan-2-yl)-[1,2,4]triazolo[1,5-a]pyridin-6-yl]-((S)-2-methoxymethyl-pyrrolidin-1-yl)-methanone] | 5.91 |  |  | 
Nc1cc(C(=O)N2CCCCC2)cn2nc(-c3ccco3)nc12 [Example 35, (8-Amino-2-furan-2-yl-[1,2,4]triazolo[1,5-a]pyridin-6-yl)-piperidin-1-yl-methanone] | 5.46 |  |  | 
Cc1ccc(-c2nc3c(N)cc(C(=O)N4CCCCC4)cn3n2)o1 [Example 84, [8-Amino-2-(5-methyl-furan-2-yl)-[1,2,4]triazolo[1,5-a]pyridin-6-yl]-piperidin-1-yl-methanone] | 5.90 |  |  | 
Nc1cc(C(=O)N2CCCC2)cn2nc(-c3cccs3)nc12 [Example 51, (8-Amino-2-thiophen-2-yl-[1,2,4]triazolo[1,5-a]pyridin-6-yl)-pyrrolidin-1-yl-methanone] | 6.14 |  |  | 
Nc1cc(C(=O)N2CCCC2)cn2nc(-c3ccc(Br)o3)nc12 [Example 11, [8-Amino-2-(5-bromo-furan-2-yl)-[1,2,4]triazolo[1,5-a]pyridin-6-yl]-pyrrolidin-1-yl-methanone] | 5.90 |  |  | 
CCCN(C)C(=O)c1cc(N)c2nc(-c3ccc(Br)o3)nn2c1 [Example 21, 8-Amino-2-(5-bromo-furan-2-yl)-[1,2,4]triazolo[1,5-a]pyridine-6-carboxylic acid methyl-propyl-amide] | 5.94 |  |  | 
CC1CCCN(C(=O)c2cc(N)c3nc(-c4ccc(Br)o4)nn3c2)C1 (stereo not drawn) [Example 20, [8-Amino-2-(5-bromo-furan-2-yl)-[1,2,4]triazolo[1,5-a]pyridin-6-yl]-(3-methyl-piperidin-1-yl)-methanone] | 6.10 |  |  | 
Nc1cc(C(=O)N2CCCCC2)cn2nc(-c3ccccn3)nc12 [Example 27, (8-Amino-2-pyridin-2-yl-[1,2,4]triazolo[1,5-a]pyridin-6-yl)-piperidin-1-yl-methanone] |  | 6.26 |  | 
CC1CCCCN1C(=O)c1cc(N)c2nc(-c3ccccc3)nn2c1 (stereo not drawn) [Example 72, (8-Amino-2-phenyl-[1,2,4]triazolo[1,5-a]pyridin-6-yl)-(2-methyl-piperidin-1-yl)-methanone] |  | 6.44 |  | 
